Where two headings read alike, the source gives them in different places.
Legend:
[1] = system: monocotyledonous and dicotyledonous harmful plant species; test: Post-emergence efficacy of indaziflam alone; format: in vivo; conditions: product containing 4 g/L of indaziflam, dose rate 12 g/ha
[2] = system: Amaranthus retroflexus (AMARE); test: Greenhouse pot trial, single post-emergence treatment, herbicidal activity rating; format: in vivo; conditions: BBCH growth stage 11-12, 12 g/ha indaziflam
Experimental: (§1) In separate pots, biological trials were conducted in the greenhouse under identical conditions (apart from the treatment with the different products P1, P2 and P3 mentioned above). Each pot contained the same soil and the same amount of seeds of each of the following weeds (two monocotyledonous and two dicotyledonous harmful plant species (weed species)):
(§2) The Tables 1 to 6 reflect the observations after certain periods of time, indicated in days (referred to as DAA=days after application) after start of treatment with/application of the respective product P1, P2 or P3 mentioned above, each in the amounts indicated below.
(§3) Indaziflam was used in an amount of 12 g/ha.

Poa annua (POAAN) = test: as above; format: in vivo; conditions: BBCH growth stage 11-12, 12 g/ha indaziflam
Experimental: as §1, §2, §3

[3] = system: Lolium multiflorum (LOLMU); test: as above; format: in vivo; conditions: BBCH growth stage 11-12, 12 g/ha indaziflam
Experimental: as §1, §2, §3

Stellaria media (STEME) = test: as above; format: in vivo; conditions: BBCH growth stage 11-12, 12 g/ha indaziflam
Experimental: as §1, §2, §3

[4] = system: monocotyledonous and dicotyledonous harmful plant species; conditions: stated as known; cited from earlier work

Cc1ccc2c(c1)[C@H](Nc1nc(N)nc([C@@H](C)F)n1)[C@@H](C)C2 (mixture of isomers) [indaziflam, N^2-[(1R,2S)-2,3-dihydro-2,6-dimethyl-1H-inden-1-yl]-6-[(1RS)-1-fluoroethyl]-1,3,5-triazine-2,4-diamine]
post-emergence efficacy [1]: only very limited post-emergence efficacy
Ratings of herbicidal activity: Regrowth [2]: very weak herbicidal effect starting on day 7 after treatment
Ratings of herbicidal activity: Regrowth (Poa annua (POAAN)): no herbicidal effect
Ratings of herbicidal activity: Regrowth [3]: no herbicidal effect
Ratings of herbicidal activity: Regrowth (Stellaria media (STEME)): no herbicidal effect
post-emergence efficacy [4]: insufficient post-emergence efficacy

From patent publication US10912301B2, “Herbicide combinations comprising L-glufosinate and indaziflam” (BASF SE, priority 2015, dated 2021)
